Assay results taken from patent publication US20200405697A1, “Antitumor Agent” (Taiho Pharmaceutical Co., Ltd, priority 2017, published 2020).

What was measured:
[1] = system: A549 (Human lung cancer cell line); test: Effect of combination of sulfonamide compound and other antitumor agent (CellTiter-Glo, combination index): A549
Protocol: (§1) Each cell line was seeded at 90 L/well to a 96-well culture plate (Thermo Fisher Scientific, Inc.) according to the above tables. The cell-seeded plate was cultured in an incubator set to 37° C. and 500 CO2. On the day following seeding, varying concentrations of the sulfonamide compound and the other antitumor agent were added in combination to the cells. […] The serial dilutions of each compound, or DW was added at 5μL/well to the plate such that each compound and DW, or the sulfonamide compound and the other antitumor agent were combined. […] The plate after the addition was cultured at 37° C. for 3 days under 5% CO2 conditions.
(§2) Three days later, CellTiter-Glo(R) 2.0 Reagent (Promega Corporation) was added at 100 μL/well, and the amount of luminescence was measured using a plate reader EnSpire(R) Multimode Plate Reader (PerkinElmer Co., Ltd.).
(§3) An average value from 3 wells was calculated as to each drug condition from the obtained data, and cell survival rate normalized against control wells supplemented with the vehicle (DW) was calculated. A Fa (fractional inhibition) value was calculated by subtracting the cell survival rate from 1.

[2] = system: CFPAC-1 (Human pancreatic cancer cell line); test: Effect of combination of sulfonamide compound and other antitumor agent (CellTiter-Glo, combination index): CFPAC-1;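 note: cells exposed to both agents together for 3 days, viability read by luminescence, normalized to vehicle-treated control wells, mean of triplicate wells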
Protocol: as §1, §2, §3

[3] = Example Compound 14 4420 nM + Gemcitabine 8.38 nM
[4] = Example Compound 209A 635 nM + Gemcitabine 5.60 nM
[5] = Example Compound 209A 952 nM + Gemcitabine 8.39 nM
[6] = Example Compound 235A 780 nM + Gemcitabine 5.60 nM
[7] = Example Compound 235A 1170 nM + Gemcitabine 8.40 nM
[8] = Example Compound 5 1050 nM + Gemcitabine 5.28 nM
[9] = Example Compound 14 2080 nM + Gemcitabine 5.28 nM
[10] = Example Compound 14 3120 nM + Gemcitabine 7.92 nM
[11] = Example Compound 209A 508 nM + Gemcitabine 5.28 nM
[12] = Example Compound 235A 722 nM + Gemcitabine 5.28 nM
[13] = Example Compound 14 874 nM + SCH900776 909 nM
[14] = Example Compound 14 1310 nM + SCH900776 1360 nM
[15] = Example Compound 14 1970 nM + SCH900776 2050 nM
[16] = Example Compound 14 2950 nM + SCH900776 3070 nM
[17] = Example Compound 209A 188 nM + SCH900776 909 nM
[18] = Example Compound 209A 282 nM + SCH900776 1360 nM
[19] = Example Compound 209A 635 nM + SCH900776 3070 nM
[20] = Example Compound 235A 231 nM + SCH900776 909 nM
[21] = Example Compound 235A 346 nM + SCH900776 1360 nM
[22] = Example Compound 235A 520 nM + SCH900776 2050 nM
[23] = Example Compound 235A 780 nM + SCH900776 3070 nM
[24] = Example Compound 235A 1170 nM + SCH900776 4610 nM
[25] = Example Compound 5 466 nM + SCH900776 253 nM
[26] = Example Compound 5 700 nM + SCH900776 379 nM
[27] = Example Compound 14 925 nM + SCH900776 253 nM
[28] = Example Compound 14 1390 nM + SCH900776 380 nM
[29] = Example Compound 14 2080 nM + SCH900776 569 nM
[30] = Example Compound 209A 226 nM + SCH900776 253 nM
[31] = Example Compound 209A 508 nM + SCH900776 568 nM
[32] = Example Compound 235A 321 nM + SCH900776 253 nM
[33] = Example Compound 235A 481 nM + SCH900776 379 nM
[34] = Example Compound 235A 722 nM + SCH900776 569 nM

Nc1ccn([C@@H]2O[C@H](CO)[C@@H](O)C2(F)F)c(=O)n1 [Gemcitabine, gemcitabine]
CI value [1, 3]: 0.752 | Fa value [1, 3]: 0.8565 | CI value [1, 4]: 0.792 | Fa value [1, 4]: 0.7031 | CI value [1, 5]: 0.791 | Fa value [1, 5]: 0.8749 | CI value [1, 6]: 0.844 | Fa value [1, 6]: 0.6511 | CI value [1, 7]: 0.714 | Fa value [1, 7]: 0.8624 | CI value [2, 8]: 0.788 | Fa value [2, 8]: 0.6974 | CI value [2, 9]: 0.756 | Fa value [2, 9]: 0.6749 | CI value [2, 10]: 0.752 | Fa value [2, 10]: 0.7790 | CI value [2, 11]: 0.736 | Fa value [2, 11]: 0.6998 | CI value [2, 12]: 0.722 | Fa value [2, 12]: 0.6762

Cn1cc(-c2cnn3c(N)c(Br)c([C@@H]4CCCNC4)nc23)cn1 [SCH900776]
CI value [1, 13]: 0.194 | Fa value [1, 13]: 0.6512 | CI value [1, 14]: 0.184 | Fa value [1, 14]: 0.7883 | CI value [1, 15]: 0.191 | Fa value [1, 15]: 0.8714 | CI value [1, 16]: 0.271 | Fa value [1, 16]: 0.8814 | CI value [1, 17]: 0.180 | Fa value [1, 17]: 0.6553 | CI value [1, 18]: 0.170 | Fa value [1, 18]: 0.7965 | CI value [1, 19]: 0.273 | Fa value [1, 19]: 0.8744 | CI value [1, 20]: 0.262 | Fa value [1, 20]: 0.6135 | CI value [1, 21]: 0.280 | Fa value [1, 21]: 0.7038 | CI value [1, 22]: 0.275 | Fa value [1, 22]: 0.8035 | CI value [1, 23]: 0.275 | Fa value [1, 23]: 0.8771 | CI value [1, 24]: 0.430 | Fa value [1, 24]: 0.8705 | CI value [2, 25]: 0.283 | Fa value [2, 25]: 0.6428 | CI value [2, 26]: 0.283 | Fa value [2, 26]: 0.7803 | CI value [2, 27]: 0.465 | Fa value [2, 27]: 0.4714 | CI value [2, 28]: 0.322 | Fa value [2, 28]: 0.7231 | CI value [2, 29]: 0.409 | Fa value [2, 29]: 0.7671 | CI value [2, 30]: 0.385 | Fa value [2, 30]: 0.5579 | CI value [2, 31]: 0.474 | Fa value [2, 31]: 0.7649 | CI value [2, 32]: 0.474 | Fa value [2, 32]: 0.4978 | CI value [2, 33]: 0.382 | Fa value [2, 33]: 0.7223 | CI value [2, 34]: 0.484 | Fa value [2, 34]: 0.7722
